For the experiment, the system named is Plasmodium berghei. The experiment can be described thus: Luciferase/luciferin-expressing antifolate-resistant parasites were used to infect a culture of HepG2 cells that were pre-incubated with compounds. Infected hepatocytes emit light due to the luciferase reaction. Assay results are presented as the percent inhibition of light emission compared to control. […]. It is filed as functional. Particulars: sporozoite; for IC90: read-out: LUCIFERASE INFECTION ASSAY - IC90.

Setting [1] is: read-out: LUCIFERASE INFECTION ASSAY - IC50.

A value given as a limit tells only on which side of the number the result lay.

A word on the IC50: it is the point on the concentration scale where inhibition reaches its midpoint. In general, IC90 refers to the point of the concentration-response curve where the effect stands at 90%. Regarding `O=C(CC1CCCC1)N1CCc2nc(NCc3cccc(Oc4ccccc4)c3)ncc2C1`, the IC90 was more than 7.46 µM. Besides, the IC50 (HEPG2TOX_HILL_SLOPE 6.79, HEPG2TOX_R_SQUARED 0.796, PBLUC_HILL_SLOPE 75.4, PBLUC_R_SQUARED 0.123, read-out: LUCIFERASE INFECTION ASSAY - IC50) worked out at 7.45 µM.

With `Cn1c(CC(=O)NNC(=O)c2ccccc2Nc2ccccc2)nc2ccccc21`, the IC90 came to 3.3 µM. Further, the IC50 (HEPG2TOX_HILL_SLOPE 1.15, HEPG2TOX_R_SQUARED 0.894, PBLUC_HILL_SLOPE 16.3, PBLUC_R_SQUARED 0.746, read-out: LUCIFERASE INFECTION ASSAY - IC50) stood at 2.88 µM.

In the case of `O=C(/C=N/Nc1ncc(C(F)(F)F)cc1Cl)c1ccccn1`, the IC90 is more than 10 µM. In addition, for the setting “PBLUC_HILL_SLOPE 3.06, PBLUC_R_SQUARED 0.0968, read-out: LUCIFERASE INFECTION ASSAY - IC50”, the IC50 worked out at 8.78 µM.

Regarding `CC(=O)c1ccc(NC(=O)N2[C@@H]3CC[C@@H](C3)[C@H]2c2nc3cccc(OCc4ccccc4)c3[nH]2)cc1`, the IC90 was more than 10 µM. Further, the IC50 (FFLUC_HILL_SLOPE 3.04, FFLUC_R_SQUARED 0.885, read-out: LUCIFERASE INFECTION ASSAY - IC50) is more than 10 µM.

For the compound `Cc1cc(O)nc(N/N=C/c2c(C)nn(-c3ccccc3Cl)c2Cl)n1`, the IC90 came out at 2.19 µM. The IC50 (PBLUC_HILL_SLOPE 2.61, PBLUC_R_SQUARED 0.512, read-out: LUCIFERASE INFECTION ASSAY - IC50) was determined as 0.943 µM.

Take `Cn1ccc2cc(-c3cn4c(-c5ccc(Cl)cc5)cnc4cn3)ccc21`: the IC90 was 0.448 µM. Further, the IC50 under setting [1] came to 0.247 µM.

As for `CCc1cccc2c(C(=O)COC(=O)C34CC5CC(CC(O)(C5)C3)C4)c[nH]c12`, the IC90 is 4.59 µM. Besides, the IC50 (HEPG2TOX_HILL_SLOPE 2.99, HEPG2TOX_R_SQUARED 0.981, PBLUC_HILL_SLOPE 3.51, PBLUC_R_SQUARED 0.785, read-out: LUCIFERASE INFECTION ASSAY - IC50) turned out to be 2.46 µM.

On to `CC(NC(=O)c1cnn(-c2ccc(C(F)(F)F)cn2)c1C(F)(F)F)C1CC2CCC1C2` (stereo unspecified), for which the IC90 worked out at 5.3 µM. The concentration for half-maximal inhibition (IC50) (HEPG2TOX_HILL_SLOPE 11.2, HEPG2TOX_R_SQUARED 0.292, PBLUC_HILL_SLOPE 7.94, PBLUC_R_SQUARED 0.51, read-out: LUCIFERASE INFECTION ASSAY - IC50) stood at 4.02 µM.

As for `Clc1cccc(CNc2nnnn2-c2ccccc2)c1`, the IC90 was more than 10 µM. Moreover, the IC50 (PBLUC_HILL_SLOPE 2.12, PBLUC_R_SQUARED 0.274, read-out: LUCIFERASE INFECTION ASSAY - IC50) turned out to be 8.09 µM.

As for `NC(Cc1ccccc1)c1csc(NC(=O)NC(c2ccccc2)c2ccccc2)n1` (stereo unspecified), the IC90 is more than 7.7 µM. Further, the half-inhibitory concentration (IC50) under setting [1] is more than 7.7 µM.

With `CN(C)C(CNc1cc(C(=O)NC2CC2)c2ccccc2n1)Cc1ccccc1` (stereo unspecified), the concentration for an effect of 90% (IC90) was more than 10 µM. In addition, the IC50 under setting [1] is more than 10 µM.

In the case of `Cc1sc2ncn3nc(-c4ccc(=O)[nH]n4)nc3c2c1C`, the IC90 was more than 11.1 µM. Besides, under setting [1], the IC50 is more than 11.1 µM.

As to `Cc1ccc(COC(=O)c2ccccc2S(=O)(=O)N2CCCCC2)cc1`, the IC90 is more than 10 µM. Besides, under setting [1], the IC50 is 9.7 µM.

Consider `C=c1onc(-c2c(F)cccc2Cl)c1=C1NC(c2cc(C(F)(F)F)cc(C(F)(F)F)c2)=NO1`, for which the IC90 was more than 6.71 µM. In addition, the IC50 (PBLUC_HILL_SLOPE 0.442, PBLUC_R_SQUARED 0.157, read-out: LUCIFERASE INFECTION ASSAY - IC50) is more than 6.71 µM.

In the case of `Cc1ccc2nc(NC(=O)c3ccccc3)c(C(=O)NC3CCCCC3)n2c1`, the IC90 came out at 3.2 µM. The IC50 (FFLUC_HILL_SLOPE 0.276, FFLUC_R_SQUARED 0.15, HEPG2TOX_HILL_SLOPE 1.74, HEPG2TOX_R_SQUARED 0.886, PBLUC_HILL_SLOPE 12, PBLUC_R_SQUARED 0.694, read-out: LUCIFERASE INFECTION ASSAY - IC50) stood at 2.66 µM.

Consider `O=[N+]([O-])c1ccc(CSc2nc3cc(Cl)c(F)cc3[nH]2)cc1`, for which the IC90 was more than 7.88 µM. Under setting [1], the IC50 was more than 7.88 µM.

`CCN(CC)CCn1c(NC(=O)c2cnc3c(cnn3C(C)C)c2)nc2ccccc21`: the IC90 amounted to 6.55 µM. Also, the IC50 (PBLUC_HILL_SLOPE 2.78, PBLUC_R_SQUARED 0.504, read-out: LUCIFERASE INFECTION ASSAY - IC50) was 2.97 µM.

As for `CN(C(=O)COc1cc2ccccc2cc1C(=O)NCc1ccccc1)C1CCCCC1`, the IC90 is more than 10 µM. Besides, the IC50 (FFLUC_HILL_SLOPE 11, FFLUC_R_SQUARED 0.0654, read-out: LUCIFERASE INFECTION ASSAY - IC50) is more than 10 µM.

As to `COc1cc(C(=O)Nc2nc3ccccc3[nH]2)ccc1C`, the IC90 came out at 8.73 µM. Moreover, the IC50 under setting [1] was found to be 5.35 µM.

In the case of `CCn1c2ccccc2c2cc(NC(=O)COC(=O)Cc3cccs3)ccc21`, the IC90 is more than 10 µM. Besides, the IC50 (PBLUC_HILL_SLOPE 11.3, PBLUC_R_SQUARED 0.588, read-out: LUCIFERASE INFECTION ASSAY - IC50) turned out to be 9.26 µM.

Consider `N#C/C(=N\Nc1ccc(F)cc1)S(=O)(=O)c1ccc(Cl)cc1`, for which the IC90 is 4.33 µM. Also, the IC50 (FFLUC_HILL_SLOPE 1.6, FFLUC_R_SQUARED 0.662, HEPG2TOX_HILL_SLOPE 1.9, HEPG2TOX_R_SQUARED 0.994, PBLUC_HILL_SLOPE 9.61, PBLUC_R_SQUARED 0.336, read-out: LUCIFERASE INFECTION ASSAY - IC50) was 3.44 µM.

For the compound `CN(C)S(=O)(=O)c1ccc(N2CCCC2)c(C(=O)N2CCCC2)c1`, the IC90 was more than 10 µM. The IC50 under setting [1] was more than 10 µM.

For the compound `O=C(Nc1ncc(Cc2cccc(Cl)c2Cl)s1)c1ccncc1`, the IC90 is 7.55 µM. Besides, the IC50 under setting [1] was determined as 3.27 µM.

In the case of `O=S(=O)(Oc1ccc(Cl)cc1)c1cc(S(=O)(=O)Oc2ccc(Cl)cc2)c(Cl)s1`, the IC90 was more than 6.6 µM. The IC50 under setting [1] was more than 6.6 µM.

As to `CN(C)C(=O)c1cccc(-c2cn3c(-c4ccc(C(C)(C)C)cc4)cnc3cn2)c1`, the IC90 was more than 8.28 µM. Besides, under “PBLUC_HILL_SLOPE 1.19, PBLUC_R_SQUARED 0.783, read-out: LUCIFERASE INFECTION ASSAY - IC50”, the IC50 was 2.27 µM.

As for `CCC(=O)N1CCC1(C)C(=O)NCc1ccc2c(c1)OCO2` (stereo unspecified), the IC90 was more than 10.8 µM. For the same compound, under setting [1], the IC50 was more than 10.8 µM.

Take `CN(Cc1cccc(Cl)c1Cl)C(C(=O)Nc1ccc(Cl)c(C(F)(F)F)c1)c1ccccc1` (stereo unspecified): the IC90 was more than 10 µM. Further, the IC50 (FFLUC_HILL_SLOPE 15.8, FFLUC_R_SQUARED 0.442, HEPG2TOX_HILL_SLOPE 1.06, HEPG2TOX_R_SQUARED 0.598, PBLUC_HILL_SLOPE 0.733, PBLUC_R_SQUARED 0.344, read-out: LUCIFERASE INFECTION ASSAY - IC50) was found to be 7.46 µM.

With `Cc1ccccc1CNC(=O)c1ccc(NC(=O)c2ccco2)s1`, the IC90 was more than 10 µM. For the same compound, the IC50 (HEPG2TOX_HILL_SLOPE 9.39, HEPG2TOX_R_SQUARED 0.787, PBLUC_HILL_SLOPE 2.67, PBLUC_R_SQUARED 0.485, read-out: LUCIFERASE INFECTION ASSAY - IC50) turned out to be 5.78 µM.

`CN1C(c2ccc(F)cc2)=CS/C1=C(/C#N)c1nnc(N2CCOCC2)n1-c1ccccc1`: the IC90 is more than 10 µM. For the same compound, the IC50 (PBLUC_HILL_SLOPE 2.7, PBLUC_R_SQUARED 0.681, read-out: LUCIFERASE INFECTION ASSAY - IC50) came out at 6.9 µM.

For the compound `COc1ccccc1C(CCNCc1ccc(F)cc1)c1ccco1` (stereo unspecified), the IC90 came to 1.66 µM. Under “HEPG2TOX_HILL_SLOPE 6.69, HEPG2TOX_R_SQUARED 0.485, PBLUC_HILL_SLOPE 6.64, PBLUC_R_SQUARED 0.691, read-out: LUCIFERASE INFECTION ASSAY - IC50”, the concentration for half-maximal inhibition (IC50) turned out to be 1.19 µM.

With `CCOC(=O)c1ccc(N2CCN(C(C)c3nc(C(C)C)no3)CC2)nc1` (stereo unspecified), the IC90 was more than 10 µM. Further, the IC50 (HEPG2TOX_HILL_SLOPE 2.09, HEPG2TOX_R_SQUARED 0.987, PBLUC_HILL_SLOPE 1.97, PBLUC_R_SQUARED 0.365, read-out: LUCIFERASE INFECTION ASSAY - IC50) came to 4.25 µM.

As for `COC(=O)c1c(C)[nH]c(C2=NNC(=NC3CC3)SC2)c1C`, the IC90 amounted to 0.0583 µM. Further, under “FFLUC_HILL_SLOPE 1.61, FFLUC_R_SQUARED 0.895, PBLUC_HILL_SLOPE 1.62, PBLUC_R_SQUARED 0.572, read-out: LUCIFERASE INFECTION ASSAY - IC50”, the 50% inhibitory concentration (IC50) was 0.015 µM.

For the compound `CC1CCCC(N2CC(C(=O)Nc3nc(-c4ccccn4)cs3)CC2=O)C1C` (stereo unspecified), the IC90 turned out to be 3.66 µM. Besides, where the note is “HEPG2TOX_HILL_SLOPE 6.97, HEPG2TOX_R_SQUARED 0.551, PBLUC_HILL_SLOPE 16.8, PBLUC_R_SQUARED 0.476, read-out: LUCIFERASE INFECTION ASSAY - IC50”, the IC50 amounted to 3.21 µM.

In the case of `Cc1cc(NC(=O)Cn2ncc(Br)c(Br)c2=O)n(C)n1`, the IC90 was more than 10 µM. Under “FFLUC_HILL_SLOPE 13, FFLUC_R_SQUARED 0.376, HEPG2TOX_HILL_SLOPE 25.8, HEPG2TOX_R_SQUARED 0.794, PBLUC_HILL_SLOPE 3.09, PBLUC_R_SQUARED 0.556, read-out: LUCIFERASE INFECTION ASSAY - IC50”, the IC50 stood at 5.35 µM.

With `CC(C)c1ccc(NC(=O)N2Cc3cnc(Nc4ccc(OCCN5CCCC5)cc4)nc3C2)cc1`, the IC90 was more than 6.78 µM. In addition, under setting [1], the IC50 was more than 6.78 µM.

As for `CCN(CC)S(=O)(=O)c1ccc2[nH]c(=O)cc(C(=O)Nc3cc(Cl)c(OC)cc3OC)c2c1`, the IC90 was more than 10 µM. For the same compound, the IC50 under setting [1] was more than 10 µM.

On to `Cc1ccc(SCCNS(=O)(=O)c2ccc(F)cc2)cc1`, for which the IC90 was more than 10.1 µM. Besides, the IC50 under setting [1] is more than 10.1 µM.

Regarding `c1ccc2c(Nc3nc(C4CC4)cs3)ncnc2c1`, the IC90 is more than 10 µM. Also, under setting [1], the IC50 was more than 10 µM.

The record behind these values is ChEMBL document CHEMBL4483862, “Open-source discovery of chemical leads for next-generation chemoprotective antimalarials” (2018).
